Measured values as given in US20060105344A1, “Modulation of deubiquitinase family members” (priority 2003, published 2006).

Assays:
[1] = system: Hela cells; assay: TNF-α/cycloheximide-induced apoptosis assay in Hela cells; type: cell-based; settings: 12-hour treatment with TNF-α in the presence of cycloheximide
Source text: This pro-apoptotic activity of TNF-α can be inhibited by simultaneous activation of NF-κB; which activates a number of anti-apoptotic genes^15. Since CYLD knockdown stimulates PMA-induced activation of NF-κB, we asked if CYLD and PMA also collaborate to inhibit TNF-α induced apoptosis. To address this, we treated Hela cells with TNF-α in the presence of cycloheximide (CHX) to induce apoptosis both with and without pre-treatment with PMA (see methods). […] Consistent with this notion, CYLD knockdown and PMA also collaborated in NF-κB activation in Hela cells.
As was discussed above, it is possible that loss of the CYLD tumour suppressor gene confers resistance to apoptosis through activation of NF-κB. If this notion is correct, one would expect that the protective effect of CYLD knockdown on apoptosis can be reversed by the NF-κB inhibitor aspirin. We tested this by treating Hela cells with TNF-α (10 ng/ml) and PMA (200 ng/ml) or PMA and aspirin (8 mM) in the presence of CYLD knockdown. Cycloheximide (10 μg/ml) was used alongside TNF to induce apoptosis.
Electroporated Hela cells with the indicated plasmids were treated with 200 nM PMA for 2-3 hrs 72 hrs post-transfection followed by 12 hrs incubation in medium containing 10 ng/ml TNF-α and 10 μg/ml cycloheximide. Viable cells were quantified using the trypan-blue exclusion method. Alternatively, apoptotic cells were removed by PBS washing, adherent cells were fixed in 4% paraformaldehyde and stained using 0.1% crystal violet (Sigma) and the optical density at 590 nm was determined as described^22. To inhibit NF-κB activity medium was supplemented with 10 mM Sodium acetylsalicylic acid 3.5 hrs before TNF-α addition.

[2] = system: IKKβ; assay: IKKβ immunoprecipitation / in vitro kinase assay; type: cell-based; settings: Flag-IKKβ immunoprecipitated, GST-IκBα (1-72) substrate; TNF-α treatment alone
Method: Next, we asked if CYLD could physically associate with known members of the NF-κB signalling machinery. In this experiment, 293 cells were transfected as indicated, lysates were prepared 48 hours later and the protein complexes immunoprecipitated (IP) using Flag antibody. Ips were immunoblotted for HA-tagged CYLD and whole cell extracts were immunoblotted fro Flag-tagged IκBα, IκKβ and NEMO/IKKγ and for HA-tagged CYLD. CYLD co-immunoprecipitated specifically with NEMO/IKKγ, but not with […] or IκBα. […] To address this, we measured IKKβ kinase activity following TNF-α stimulation in the presence and absence of CYLD knockdown, using an in vitro kinase assay. In summary, U2-S cells were co-transfected with Flag-tagged IKKβ and pSUPER-CYLD or empty vector. Cells were stimulated as indicated, IKKβ was immunoprecipitated from cell lysates and incubated with GST-IκBα (1-72) in the presence of ^32P-γATP. Immunoprecipitated IKKβ was visualised by immunoblotting with Flag antibody. In the absence of TNF-α, no IKKβ kinase activity towards IκBα could be detected.
Western blots were performed using whole cell extracts, separated on 8-12% SDS-PAGE gels and transferred to polyvinylidine difuoride membranes (Millipore). Western blots were probed with the indicated antibodies. […]

With TNF-α the “apoptosis of Hela cells” value [1] was ~95% and the “IKKβ kinase activity towards IκBα” value [2] was “significantly stimulated”.
